Reference: patent publication US9850283B2, “Macrocyclic inhibitors of the PD-1/PD-L1 and CD80(B7-1)/PD-L1 protein/protein interactions” (BRISTOL-MYERS SQUIBB COMPANY, priority 2013, dated 2017)
Positions of bridges follow the written chain, without caps; N, C: chain ends. Non-standard residues stand in square brackets, D forms with d. Residues, ends and D or L forms follow the SMILES beside them. Bta = N[C@@H](Cc1csc2ccccc12)C(=O)O; Hyp = O=C(O)[C@@H]1C[C@@H](O)CN1; NMeNle = CCCC[C@H](NC)C(=O)O; NMeA = CN[C@@H](C)C(=O)O; Orn = NCCC[C@H](N)C(=O)O; Dab = NCC[C@H](N)C(=O)O; Dap = NC[C@H](N)C(=O)O

Key:
Human PD-L1/PD-1 = target: T1, Human PD-L1/PD-1 (Homo sapiens, UniProt Q9NZQ7); experiment: HTRF PD-1-Ig/PD-L1-His binding assay (human PD-L1); conditions: cluster symbol; read-out: HTRF IC50 cluster
T1 construct: made in house; host or cells: HEK293T
How it was run: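 Interaction of Fc-tagged soluble PD-1 with His-tagged soluble PD-L1 is monitored by time-resolved FRET. Donor is europium cryptate anti-Ig (1 nM final) and acceptor is APC anti-His (20 nM final). Assay buffer is dPBS with 0.1% BSA and 0.05% Tween-20.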

[1] = target: T2, LK35.2-hPD-L1 cells / PE-labeled PD-1-Ig (Homo sapiens, UniProt Q9NZQ7); experiment: LK35.2-hPD-L1 cell binding high-content screening assay; type: cell-based; conditions: cluster symbol; cell line of CBA not given (LK35.2-hPD-L1 or 293T-hPD-L1); read-out: CBA IC50 cluster
T2 construct: expressed in transfected cells; host or cells: LK35.2 mouse B cell line
How it was run: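 Fluorescent PD-1-Ig binding to PD-L1-expressing LK35.2 cells, imaged after washing. Conditions: 1 nM PE-PD-1-Ig, 37 °C, 1 h, RPMI with 10% fetal calf serum.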

T2 sequence (Q9NZQ7 19-290): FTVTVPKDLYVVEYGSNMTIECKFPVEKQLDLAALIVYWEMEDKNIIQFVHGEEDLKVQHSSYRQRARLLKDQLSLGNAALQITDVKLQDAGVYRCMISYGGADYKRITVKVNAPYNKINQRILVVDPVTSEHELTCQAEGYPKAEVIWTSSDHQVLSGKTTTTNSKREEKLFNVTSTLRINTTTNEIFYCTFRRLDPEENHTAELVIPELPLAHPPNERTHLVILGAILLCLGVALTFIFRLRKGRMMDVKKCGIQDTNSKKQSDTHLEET
T1 sequence (Q9NZQ7 with tags, fused parts or gaps): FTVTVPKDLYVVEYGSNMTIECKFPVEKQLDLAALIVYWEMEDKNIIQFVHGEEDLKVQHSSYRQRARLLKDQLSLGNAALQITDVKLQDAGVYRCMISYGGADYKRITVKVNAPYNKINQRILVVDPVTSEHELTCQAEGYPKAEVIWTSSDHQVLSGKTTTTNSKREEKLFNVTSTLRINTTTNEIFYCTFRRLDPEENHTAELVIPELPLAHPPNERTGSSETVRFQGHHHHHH

Row | SMILES | IC50 (Human PD-L1/PD-1) | IC50 [1]
1 | CCCC[C@H]1C(=O)N(C)[C@@H](CCCC)C(=O)N[C@@H](C)C(=O)N[C@H](C(=O)NCC(N)=O)CSCC(=O)N[C@@H](Cc2ccc(O)cc2)C(=O)N(C)[C@@H](C)C(=O)N[C@@H](CC(N)=O)C(=O)N2CCC[C@H]2C(=O)N[C@@H](Cc2cnc[nH]2)C(=O)N[C@@H](CCC(=O)O)C(=O)N2C[C@H](O)C[C@H]2C(=O)N[C@@H](Cc2c[nH]c3ccccc23)C(=O)N[C@@H](CO)C(=O)N[C@@H](Cc2c[nH]c3ccccc23)C(=O)N1C [Example 1168] | 0.385 to 6.74 nM | 0.158 to 4.71 nM
2 | CCCC[C@H]1C(=O)N(C)[C@@H](CCCC)C(=O)N[C@@H](C)C(=O)N[C@H](C(=O)NCC(N)=O)CSCC(=O)N[C@@H](Cc2ccc(O)cc2)C(=O)N(C)[C@@H](C)C(=O)N[C@@H](CCC(=O)O)C(=O)N2CCC[C@H]2C(=O)N[C@@H](Cc2cnc[nH]2)C(=O)N[C@@H](CC(C)C)C(=O)N2C[C@H](O)C[C@H]2C(=O)N[C@@H](Cc2c[nH]c3ccccc23)C(=O)N[C@@H](CO)C(=O)N[C@@H](Cc2c[nH]c3ccccc23)C(=O)N1C [Example 1169] | 6.76 to 30.3 nM | 4.78 to 72.9 nM
3 | CCCC[C@H]1C(=O)N(C)[C@@H](CCCC)C(=O)N[C@@H](C)C(=O)N[C@H](C(=O)NCC(N)=O)CSCC(=O)N[C@@H](Cc2ccc(O)cc2)C(=O)N(C)[C@@H](C)C(=O)N[C@@H](CC(N)=O)C(=O)N2CCC[C@H]2C(=O)N[C@@H](CN)C(=O)N[C@@H](CC(=O)O)C(=O)N2C[C@H](O)C[C@H]2C(=O)N[C@@H](Cc2c[nH]c3ccccc23)C(=O)N[C@@H](CO)C(=O)N[C@@H](Cc2c[nH]c3ccccc23)C(=O)N1C [Example 1170] ({CH2CO}-Y[NMeA]NP[Dap]D[Hyp]WSW[NMeNle][NMeNle]ACG-NH2; thioether N-14) | 0.385 to 6.74 nM | 4.78 to 72.9 nM
4 | CCCC[C@H]1C(=O)N(C)[C@@H](CCCC)C(=O)N[C@@H](C)C(=O)N[C@H](C(=O)NCC(N)=O)CSCC(=O)N[C@@H](Cc2ccc(O)cc2)C(=O)N(C)[C@@H](C)C(=O)N[C@@H](CC(N)=O)C(=O)N2CCC[C@H]2C(=O)N[C@@H](CN)C(=O)N[C@@H](CCC(=O)O)C(=O)N2C[C@H](O)C[C@H]2C(=O)N[C@@H](Cc2c[nH]c3ccccc23)C(=O)N[C@@H](CO)C(=O)N[C@@H](Cc2c[nH]c3ccccc23)C(=O)N1C [Example 1171] ({CH2CO}-Y[NMeA]NP[Dap]E[Hyp]WSW[NMeNle][NMeNle]ACG-NH2; thioether N-14) | 0.385 to 6.74 nM | 0.158 to 4.71 nM
5 | CCCC[C@H]1C(=O)N(C)[C@@H](CCCC)C(=O)N[C@@H](C)C(=O)N[C@H](C(N)=O)CSCC(=O)N[C@@H](Cc2ccc(O)cc2)C(=O)N(C)[C@@H](C)C(=O)N[C@@H](CCC(=O)O)C(=O)N2CCC[C@H]2C(=O)N[C@@H](CN)C(=O)N[C@@H](CC(C)C)C(=O)N2C[C@H](O)C[C@H]2C(=O)N[C@@H](Cc2c[nH]c3ccccc23)C(=O)N[C@@H](CO)C(=O)N[C@@H](Cc2c[nH]c3ccccc23)C(=O)N1C [Example 1172] ({CH2CO}-Y[NMeA]EP[Dap]L[Hyp]WSW[NMeNle][NMeNle]AC-NH2; thioether N-14) | 0.385 to 6.74 nM | 4.78 to 72.9 nM
6 | CCCC[C@H]1C(=O)N(C)[C@@H](CCCC)C(=O)N[C@@H](CCCN)C(=O)N[C@H](C(=O)NCC(N)=O)CSCC(=O)N[C@@H](Cc2ccc(O)cc2)C(=O)N2CC(F)(F)C[C@H]2C(=O)N[C@@H](CC(N)=O)C(=O)N2CCC[C@H]2C(=O)N[C@@H](Cc2cnc[nH]2)C(=O)N[C@@H](CC(C)C)C(=O)N2C[C@H](O)C[C@H]2C(=O)N[C@@H](Cc2c[nH]c3ccccc23)C(=O)N[C@@H](CO)C(=O)N[C@@H](Cc2c[nH]c3ccccc23)C(=O)N1C [Example 1174] | 0.385 to 6.74 nM | 0.158 to 4.71 nM
7 | CCCC[C@H]1C(=O)N(C)[C@@H](CCCC)C(=O)N[C@@H](CCCNC(=N)N)C(=O)N[C@H](C(=O)NCC(N)=O)CSCC(=O)N[C@@H](Cc2ccc(O)cc2)C(=O)N(C)[C@@H](C)C(=O)N[C@@H](CCC(=O)O)C(=O)N2CCC[C@H]2C(=O)N[C@@H](Cc2cnc[nH]2)C(=O)N[C@@H](CC(C)C)C(=O)N2C[C@H](O)C[C@H]2C(=O)N[C@@H](Cc2c[nH]c3ccccc23)C(=O)N[C@@H](CO)C(=O)N[C@@H](Cc2c[nH]c3ccccc23)C(=O)N1C [Example 1175] ({CH2CO}-Y[NMeA]EPHL[Hyp]WSW[NMeNle][NMeNle]RCG-NH2; thioether N-14) | 0.385 to 6.74 nM | 4.78 to 72.9 nM
8 | CCCC[C@H]1C(=O)N(C)[C@@H](CCCC)C(=O)N[C@@H](CCCN)C(=O)N[C@H](C(=O)NCC(N)=O)CSCC(=O)N[C@@H](Cc2ccc(O)cc2)C(=O)N2CC[C@H]2C(=O)N[C@@H](CC(N)=O)C(=O)N2CCC[C@H]2C(=O)N[C@@H](Cc2cnc[nH]2)C(=O)N[C@@H](CC(C)C)C(=O)N2C[C@H](O)C[C@H]2C(=O)N[C@@H](Cc2c[nH]c3ccccc23)C(=O)N[C@@H](CO)C(=O)N[C@@H](Cc2c[nH]c3ccccc23)C(=O)N1C [Example 1176] | 6.76 to 30.3 nM | 4.78 to 72.9 nM
9 | CCCC[C@H]1C(=O)N(C)[C@@H](CCCC)C(=O)N[C@@H](CCCN)C(=O)N[C@H](C(=O)NCC(N)=O)CSCC(=O)N[C@@H](Cc2ccc(O)cc2)C(=O)N2CCCC[C@H]2C(=O)N[C@@H](CC(N)=O)C(=O)N2CCC[C@H]2C(=O)N[C@@H](Cc2cnc[nH]2)C(=O)N[C@@H](CC(C)C)C(=O)N2C[C@H](O)C[C@H]2C(=O)N[C@@H](Cc2c[nH]c3ccccc23)C(=O)N[C@@H](CO)C(=O)N[C@@H](Cc2c[nH]c3ccccc23)C(=O)N1C [Example 1177] | 0.385 to 6.74 nM | 0.158 to 4.71 nM
10 | CCCC[C@H]1C(=O)N(C)[C@@H](CCCC)C(=O)N[C@@H](C)C(=O)N[C@H](C(=O)NCC(N)=O)CSCC(=O)N[C@@H](Cc2ccc(O)cc2)C(=O)N(C)[C@@H](C)C(=O)N[C@@H](CCC(=O)O)C(=O)N2CCC[C@H]2C(=O)N[C@@H](Cc2cnc[nH]2)C(=O)N[C@@H](CCCN)C(=O)N2C[C@H](O)C[C@H]2C(=O)N[C@@H](Cc2c[nH]c3ccccc23)C(=O)N[C@@H](CO)C(=O)N[C@@H](Cc2c[nH]c3ccccc23)C(=O)N1C [Example 1178] ({CH2CO}-Y[NMeA]EPH[Orn][Hyp]WSW[NMeNle][NMeNle]ACG-NH2; thioether N-14) | 0.385 to 6.74 nM | 4.78 to 72.9 nM
11 | CCCC[C@H]1C(=O)N(C)[C@@H](CCCC)C(=O)N[C@@H](C)C(=O)N[C@H](C(=O)NCC(N)=O)CSCC(=O)N[C@@H](Cc2ccc(O)cc2)C(=O)N(C)[C@@H](C)C(=O)N[C@@H](CCCN)C(=O)N2CCC[C@H]2C(=O)N[C@@H](Cc2cnc[nH]2)C(=O)N[C@@H](CCC(=O)O)C(=O)N2C[C@H](O)C[C@H]2C(=O)N[C@@H](Cc2c[nH]c3ccccc23)C(=O)N[C@@H](CO)C(=O)N[C@@H](Cc2c[nH]c3ccccc23)C(=O)N1C [Example 1179] ({CH2CO}-Y[NMeA][Orn]PHE[Hyp]WSW[NMeNle][NMeNle]ACG-NH2; thioether N-14) | 0.385 to 6.74 nM | 4.78 to 72.9 nM
12 | CCCC[C@H]1C(=O)N(C)[C@@H](CCCC)C(=O)N[C@@H](CN)C(=O)N[C@H](C(=O)NCC(N)=O)CSCC(=O)N[C@@H](Cc2ccc(O)cc2)C(=O)N(C)[C@@H](C)C(=O)N[C@@H](CC(N)=O)C(=O)N2CCC[C@H]2C(=O)N[C@@H](CN)C(=O)N[C@@H](CC(C)C)C(=O)N2C[C@H](O)C[C@H]2C(=O)N[C@@H](Cc2c[nH]c3ccccc23)C(=O)N[C@@H](CCN)C(=O)N[C@@H](Cc2csc3ccccc23)C(=O)N1C [Example 1180] ({CH2CO}-Y[NMeA]NP[Dap]L[Hyp]W[Dab][Bta][NMeNle][NMeNle][Dap]CG-NH2; thioether N-14) | 0.385 to 6.74 nM | 0.158 to 4.71 nM
13 | CCCC[C@H]1C(=O)N(C)[C@@H](CCCC)C(=O)N[C@@H](CCCN)C(=O)N[C@H](C(=O)NCC(N)=O)CSCC(=O)N[C@@H](Cc2ccc(O)cc2)C(=O)N2CCC[C@H]2C(=O)N[C@@H](CC(=O)O)C(=O)N2CCC[C@H]2C(=O)N[C@@H](CN)C(=O)N[C@@H](CC(=O)O)C(=O)N2C[C@H](O)C[C@H]2C(=O)N[C@@H](Cc2c[nH]c3ccccc23)C(=O)N[C@@H](CCN)C(=O)N[C@@H](Cc2csc3ccccc23)C(=O)N1C [Example 1181] ({CH2CO}-YPDP[Dap]D[Hyp]W[Dab][Bta][NMeNle][NMeNle][Orn]CG-NH2; thioether N-14) | 6.76 to 30.3 nM | > 74.3 nM
14 | CCCC[C@H]1C(=O)N(C)[C@@H](CCCC)C(=O)N[C@@H](CCCN)C(=O)N[C@H](C(=O)NCC(N)=O)CSCC(=O)N[C@@H](Cc2ccc(O)cc2)C(=O)N(C)[C@@H](C)C(=O)N[C@@H](CC(=O)O)C(=O)N2CCC[C@H]2C(=O)N[C@@H](CN)C(=O)N[C@@H](CCC(N)=O)C(=O)N2C[C@H](O)C[C@H]2C(=O)N[C@@H](Cc2c[nH]c3ccccc23)C(=O)N[C@@H](CCN)C(=O)N[C@@H](Cc2csc3ccccc23)C(=O)N1C [Example 1182] ({CH2CO}-Y[NMeA]DP[Dap]Q[Hyp]W[Dab][Bta][NMeNle][NMeNle][Orn]CG-NH2; thioether N-14) | 0.385 to 6.74 nM | 0.158 to 4.71 nM
15 | CCCC[C@H]1C(=O)N(C)[C@@H](CCCC)C(=O)N[C@@H](CCCN)C(=O)N[C@H](C(=O)NCC(N)=O)CSCC(=O)N[C@@H](Cc2ccc(O)cc2)C(=O)N(C)[C@@H](C)C(=O)N[C@@H](CC(=O)O)C(=O)N2CCC[C@H]2C(=O)N[C@@H](CN)C(=O)N[C@@H](CCC(=O)O)C(=O)N2C[C@H](O)C[C@H]2C(=O)N[C@@H](Cc2c[nH]c3ccccc23)C(=O)N[C@@H](CCN)C(=O)N[C@@H](Cc2csc3ccccc23)C(=O)N1C [Example 1183] ({CH2CO}-Y[NMeA]DP[Dap]E[Hyp]W[Dab][Bta][NMeNle][NMeNle][Orn]CG-NH2; thioether N-14) | 0.385 to 6.74 nM | 0.158 to 4.71 nM
